# Test results: ChEMBL document CHEMBL4804286, “3-amino-4-(4-(4 (dimethylcarbamoyl) phenyl)-1,4-diazepan-1-yl) thieno [2,3-b] pyridine-2-carboxamide for use in cancer therapy and formulations comprising the same” (2020)
# Values joined by “and” are separate entries in the source; they are usually repeats but may differ in a detail not shown here. Equal values may be shown once. Active and inactive are the calls of the source. The rule behind the calls is not given here.
# How the values were obtained:
# [1] = biological target: Tyrosine-protein kinase JAK3 (Homo sapiens) (UniProt P52333); experiment: Inhibition of human JAK3 JH1 catalytic domain assessed as percent of control at 2000 nM by KINOMEscan assay relative to control; parameters: scale not given: the % may be the effect or the level left
# [2] = biological target: Casein kinase I isoform gamma-3 (Homo sapiens) (UniProt Q9Y6M4); experiment: Inhibition of human CSNK1G3 assessed as percent of control at 2000 nM by KINOMEscan assay relative to control; parameters: scale not given: the % may be the effect or the level left
# Sequence of Casein kinase I isoform gamma-3 (Homo sapiens) (Q9Y6M4 whole entry, looked up, canonical isoform): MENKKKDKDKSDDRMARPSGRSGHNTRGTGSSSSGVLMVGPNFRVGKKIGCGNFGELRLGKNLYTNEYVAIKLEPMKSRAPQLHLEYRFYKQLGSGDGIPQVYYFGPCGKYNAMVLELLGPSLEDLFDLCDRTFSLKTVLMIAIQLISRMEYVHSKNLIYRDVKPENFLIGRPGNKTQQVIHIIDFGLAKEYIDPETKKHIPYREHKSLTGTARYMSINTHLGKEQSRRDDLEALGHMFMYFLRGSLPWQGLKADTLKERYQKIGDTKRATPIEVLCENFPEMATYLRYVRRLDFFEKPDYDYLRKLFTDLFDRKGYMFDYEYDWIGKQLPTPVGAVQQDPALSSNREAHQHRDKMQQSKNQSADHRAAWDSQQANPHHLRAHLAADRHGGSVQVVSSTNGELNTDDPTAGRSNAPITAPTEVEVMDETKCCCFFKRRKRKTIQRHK
# [3] = biological target: Ephrin type-A receptor 3 (Homo sapiens) (UniProt P29320); experiment: Inhibition of human EPHA3 assessed as percent of control at 2000 nM by KINOMEscan assay relative to control; parameters: scale not given: the % may be the effect or the level left
# [4] = biological target: Ribosomal protein S6 kinase alpha-1 (Homo sapiens) (UniProt Q15418); experiment: Inhibition of human N-terminal RSK1 kinase domain 1 assessed as percent of control at 2000 nM by KINOMEscan assay relative to control; parameters: scale not given: the % may be the effect or the level left
# [5] = biological target: Protein-tyrosine kinase 6 (Homo sapiens) (UniProt Q13882); experiment: Inhibition of human BRK assessed as percent of control at 2000 nM by KINOMEscan assay relative to control; parameters: scale not given: the % may be the effect or the level left
# [6] = biological target: Serine/threonine-protein kinase WNK1 (Homo sapiens) (UniProt Q9H4A3); experiment: Inhibition of human WNK1 assessed as percent of control at 2000 nM by KINOMEscan assay relative to control; parameters: scale not given: the % may be the effect or the level left
# [7] = biological target: Serine/threonine-protein kinase DCLK3 (Homo sapiens) (UniProt Q9C098); experiment: Inhibition of human DCAMKL3 assessed as percent of control at 2000 nM by KINOMEscan assay relative to control; parameters: scale not given: the % may be the effect or the level left
# [8] = biological target: Tyrosine-protein kinase Tec (Homo sapiens) (UniProt P42680); experiment: Inhibition of human TEC assessed as percent of control at 2000 nM by KINOMEscan assay relative to control; parameters: scale not given: the % may be the effect or the level left
# Sequence of Tyrosine-protein kinase Tec (Homo sapiens) (P42680 whole entry): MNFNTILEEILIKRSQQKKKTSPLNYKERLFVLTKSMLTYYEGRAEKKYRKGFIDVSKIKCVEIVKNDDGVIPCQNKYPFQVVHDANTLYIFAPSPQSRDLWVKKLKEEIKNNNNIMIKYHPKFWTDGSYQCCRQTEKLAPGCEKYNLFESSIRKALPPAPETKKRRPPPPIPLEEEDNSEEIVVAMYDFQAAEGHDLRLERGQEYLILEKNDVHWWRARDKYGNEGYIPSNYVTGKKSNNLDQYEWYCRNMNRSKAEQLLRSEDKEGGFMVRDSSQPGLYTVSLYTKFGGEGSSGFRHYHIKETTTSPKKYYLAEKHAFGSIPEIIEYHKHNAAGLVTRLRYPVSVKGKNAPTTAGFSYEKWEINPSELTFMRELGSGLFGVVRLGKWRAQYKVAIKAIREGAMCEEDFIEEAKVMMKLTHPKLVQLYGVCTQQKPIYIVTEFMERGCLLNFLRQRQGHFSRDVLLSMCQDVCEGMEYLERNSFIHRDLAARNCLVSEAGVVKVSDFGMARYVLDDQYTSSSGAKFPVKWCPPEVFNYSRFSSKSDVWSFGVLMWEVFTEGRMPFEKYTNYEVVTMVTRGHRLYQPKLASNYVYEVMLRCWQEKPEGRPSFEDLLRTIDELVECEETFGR
# [9] = biological target: Serine/threonine-protein kinase 33 (Homo sapiens) (UniProt Q9BYT3); experiment: Inhibition of human STK33 assessed as percent of control at 2000 nM by KINOMEscan assay relative to control; parameters: scale not given: the % may be the effect or the level left
# [10] = biological target: Tyrosine-protein kinase JAK2 (Homo sapiens) (UniProt O60674); experiment: Inhibition of human JAK2 JH1 catalytic domain assessed as percent of control at 2000 nM by KINOMEscan assay relative to control; parameters: scale not given: the % may be the effect or the level left
# [11] = biological target: Tyrosine-protein kinase HCK (Homo sapiens) (UniProt P08631); experiment: Inhibition of human HCK assessed as percent of control at 2000 nM by KINOMEscan assay relative to control; parameters: scale not given: the % may be the effect or the level left
# Sequence of Tyrosine-protein kinase HCK (Homo sapiens) (P08631 2-526 limits assumed): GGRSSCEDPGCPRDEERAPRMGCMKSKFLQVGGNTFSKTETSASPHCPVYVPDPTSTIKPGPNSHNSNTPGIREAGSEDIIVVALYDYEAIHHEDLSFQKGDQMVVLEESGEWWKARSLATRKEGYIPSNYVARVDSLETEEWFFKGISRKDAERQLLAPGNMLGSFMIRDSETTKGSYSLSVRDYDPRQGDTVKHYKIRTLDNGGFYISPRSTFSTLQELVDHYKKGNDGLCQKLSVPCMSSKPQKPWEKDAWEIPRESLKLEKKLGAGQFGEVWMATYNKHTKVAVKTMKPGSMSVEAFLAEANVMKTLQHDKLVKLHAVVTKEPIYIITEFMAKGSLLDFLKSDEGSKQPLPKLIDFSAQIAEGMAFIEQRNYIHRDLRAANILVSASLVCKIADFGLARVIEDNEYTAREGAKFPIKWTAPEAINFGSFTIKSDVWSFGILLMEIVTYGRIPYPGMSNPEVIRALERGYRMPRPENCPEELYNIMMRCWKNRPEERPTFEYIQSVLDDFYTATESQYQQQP
# [12] = biological target: Tyrosine-protein kinase receptor UFO (Homo sapiens) (UniProt P30530); experiment: Inhibition of human AXL assessed as percent of control at 2000 nM by KINOMEscan assay relative to control; parameters: scale not given: the % may be the effect or the level left
# [13] = biological target: cAMP-dependent protein kinase catalytic subunit beta (Homo sapiens) (UniProt P22694); experiment: Inhibition of human PKAC-beta assessed as percent of control at 2000 nM by KINOMEscan assay relative to control; parameters: scale not given: the % may be the effect or the level left
# [14] = biological target: Cyclin-dependent kinase 7 (Homo sapiens) (UniProt P50613); experiment: Inhibition of human CDK7 assessed as percent of control at 2000 nM by KINOMEscan assay relative to control; parameters: scale not given: the % may be the effect or the level left
# [15] = biological target: Cyclin-dependent kinase 4 (Homo sapiens) (UniProt P11802); experiment: Inhibition of human CDK4 assessed as percent of control at 2000 nM by KINOMEscan assay relative to control; parameters: scale not given: the % may be the effect or the level left
# [16] = biological target: Protein kinase C iota type (Homo sapiens) (UniProt P41743); experiment: Inhibition of human PRKCI assessed as percent of control at 2000 nM by KINOMEscan assay relative to control; parameters: scale not given: the % may be the effect or the level left
# [17] = biological target: Wee1-like protein kinase 2 (Homo sapiens) (UniProt P0C1S8); experiment: Inhibition of human WEE2 assessed as percent of control at 2000 nM by KINOMEscan assay relative to control; parameters: scale not given: the % may be the effect or the level left
# Sequence of Wee1-like protein kinase 2 (Homo sapiens) (P0C1S8 whole entry, looked up): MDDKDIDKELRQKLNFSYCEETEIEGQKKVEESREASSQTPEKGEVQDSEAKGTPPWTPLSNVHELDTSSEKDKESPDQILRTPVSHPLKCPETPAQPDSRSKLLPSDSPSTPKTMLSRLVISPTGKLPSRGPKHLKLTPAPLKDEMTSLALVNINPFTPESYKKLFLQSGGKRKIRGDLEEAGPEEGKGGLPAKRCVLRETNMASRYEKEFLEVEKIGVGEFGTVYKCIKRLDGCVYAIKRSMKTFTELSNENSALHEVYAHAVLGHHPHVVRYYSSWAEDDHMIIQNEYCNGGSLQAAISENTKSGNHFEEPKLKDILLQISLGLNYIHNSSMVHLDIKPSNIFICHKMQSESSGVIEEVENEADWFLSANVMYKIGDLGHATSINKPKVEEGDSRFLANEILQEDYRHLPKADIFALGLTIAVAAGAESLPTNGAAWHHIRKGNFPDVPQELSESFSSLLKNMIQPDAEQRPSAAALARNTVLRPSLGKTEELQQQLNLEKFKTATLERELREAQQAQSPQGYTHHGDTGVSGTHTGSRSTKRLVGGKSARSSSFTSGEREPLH
# [18] = test system: Epidermal growth factor receptor (Homo sapiens), P00533 [UNDEFINED MUTATION]; experiment: Inhibition of human EGFR […] mutant assessed as percent of control at 2000 nM by KINOMEscan assay relative to control; parameters: scale not given: the % may be the effect or the level left
# [19] = biological target: Serine/threonine-protein kinase 17B (Homo sapiens) (UniProt O94768); experiment: Inhibition of human DRAK2 assessed as percent of control at 2000 nM by KINOMEscan assay relative to control; parameters: scale not given: the % may be the effect or the level left
# [20] = test system: Epidermal growth factor receptor (Homo sapiens), P00533 [G719S]; experiment: Inhibition of human EGFR G719S assessed as percent of control at 2000 nM by KINOMEscan assay relative to control; parameters: scale not given: the % may be the effect or the level left
# [21] = biological target: Activin receptor type-1-like (Homo sapiens) (UniProt P37023); experiment: Inhibition of human ACVRL1 assessed as percent of control at 2000 nM by KINOMEscan assay relative to control; parameters: scale not given: the % may be the effect or the level left
# [22] = biological target: Cyclin-dependent kinase-like 3 (Homo sapiens) (UniProt Q8IVW4); experiment: Inhibition of human CDKL3 assessed as percent of control at 2000 nM by KINOMEscan assay relative to control; parameters: scale not given: the % may be the effect or the level left
# Sequence of Cyclin-dependent kinase-like 3 (Homo sapiens) (Q8IVW4 whole entry, looked up): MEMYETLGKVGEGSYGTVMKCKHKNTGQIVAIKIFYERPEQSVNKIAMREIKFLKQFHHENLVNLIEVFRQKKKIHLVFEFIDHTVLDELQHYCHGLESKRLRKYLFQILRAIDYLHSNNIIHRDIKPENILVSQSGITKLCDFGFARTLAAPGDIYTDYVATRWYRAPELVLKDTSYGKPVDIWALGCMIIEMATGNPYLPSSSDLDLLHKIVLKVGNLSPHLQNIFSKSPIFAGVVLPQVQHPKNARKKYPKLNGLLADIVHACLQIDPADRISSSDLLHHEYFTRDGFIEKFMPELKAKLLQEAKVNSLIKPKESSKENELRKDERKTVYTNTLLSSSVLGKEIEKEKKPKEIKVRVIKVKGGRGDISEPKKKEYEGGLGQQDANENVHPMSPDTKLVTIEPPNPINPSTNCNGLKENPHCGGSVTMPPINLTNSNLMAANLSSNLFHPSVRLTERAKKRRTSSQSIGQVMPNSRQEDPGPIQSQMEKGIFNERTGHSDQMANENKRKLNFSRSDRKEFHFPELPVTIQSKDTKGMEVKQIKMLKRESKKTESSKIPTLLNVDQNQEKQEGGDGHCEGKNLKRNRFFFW
# [23] = biological target: 5'-AMP-activated protein kinase catalytic subunit alpha-2 (Homo sapiens) (UniProt P54646); experiment: Inhibition of human AMPK-alpha2 assessed as percent of control at 2000 nM by KINOMEscan assay relative to control; parameters: scale not given: the % may be the effect or the level left
# Myc-CaP = experiment: Antitumor activity against murine castration-resistant Myc-CaP cells xenografted in male FVB mouse assessed as suppression of tumor weight in presence of enzalutamide; format: functional
# [24] = biological target: Tyrosine-protein kinase Srms (Homo sapiens) (UniProt Q9H3Y6); experiment: Inhibition of human SRMS assessed as percent of control at 2000 nM by KINOMEscan assay relative to control; parameters: scale not given: the % may be the effect or the level left
# Sequence of Tyrosine-protein kinase Srms (Homo sapiens) (Q9H3Y6 whole entry): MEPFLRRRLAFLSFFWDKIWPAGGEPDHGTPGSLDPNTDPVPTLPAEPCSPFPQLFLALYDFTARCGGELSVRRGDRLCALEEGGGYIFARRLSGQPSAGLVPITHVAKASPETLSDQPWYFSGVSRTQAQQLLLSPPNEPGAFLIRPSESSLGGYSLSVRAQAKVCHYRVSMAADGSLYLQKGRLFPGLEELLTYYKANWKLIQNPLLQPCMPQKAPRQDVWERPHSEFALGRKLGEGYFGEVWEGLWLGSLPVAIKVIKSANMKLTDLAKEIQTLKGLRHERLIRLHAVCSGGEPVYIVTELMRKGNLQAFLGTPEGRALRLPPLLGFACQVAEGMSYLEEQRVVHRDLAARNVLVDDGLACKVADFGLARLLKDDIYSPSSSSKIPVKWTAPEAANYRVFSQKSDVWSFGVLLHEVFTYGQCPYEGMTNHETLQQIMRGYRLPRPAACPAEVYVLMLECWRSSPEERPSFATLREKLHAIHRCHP
# [25] = biological target: Serine/threonine-protein kinase PLK1 (Homo sapiens) (UniProt P53350); experiment: Inhibition of human PLK1 assessed as percent of control at 2000 nM by KINOMEscan assay relative to control; parameters: scale not given: the % may be the effect or the level left
# Sequence of Serine/threonine-protein kinase PLK1 (Homo sapiens) (P53350 whole entry): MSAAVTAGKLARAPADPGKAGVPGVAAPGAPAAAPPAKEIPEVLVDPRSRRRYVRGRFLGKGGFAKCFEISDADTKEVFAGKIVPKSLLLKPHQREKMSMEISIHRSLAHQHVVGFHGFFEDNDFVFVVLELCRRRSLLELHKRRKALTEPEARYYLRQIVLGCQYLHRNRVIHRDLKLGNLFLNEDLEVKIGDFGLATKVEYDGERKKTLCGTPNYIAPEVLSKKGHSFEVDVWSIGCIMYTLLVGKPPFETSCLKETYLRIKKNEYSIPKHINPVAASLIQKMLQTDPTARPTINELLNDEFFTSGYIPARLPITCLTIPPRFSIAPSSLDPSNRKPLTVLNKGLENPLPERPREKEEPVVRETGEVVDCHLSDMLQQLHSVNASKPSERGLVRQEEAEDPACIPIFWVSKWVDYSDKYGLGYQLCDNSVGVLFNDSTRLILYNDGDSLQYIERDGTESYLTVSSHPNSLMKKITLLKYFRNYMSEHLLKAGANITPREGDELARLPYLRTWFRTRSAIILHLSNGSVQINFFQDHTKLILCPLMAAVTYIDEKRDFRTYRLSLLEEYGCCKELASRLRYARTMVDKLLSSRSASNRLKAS
# [26] = biological target: Tyrosine-protein kinase TXK (Homo sapiens) (UniProt P42681); experiment: Inhibition of human TXK assessed as percent of control at 2000 nM by KINOMEscan assay relative to control; parameters: scale not given: the % may be the effect or the level left
# Sequence of Tyrosine-protein kinase TXK (Homo sapiens) (P42681 whole entry): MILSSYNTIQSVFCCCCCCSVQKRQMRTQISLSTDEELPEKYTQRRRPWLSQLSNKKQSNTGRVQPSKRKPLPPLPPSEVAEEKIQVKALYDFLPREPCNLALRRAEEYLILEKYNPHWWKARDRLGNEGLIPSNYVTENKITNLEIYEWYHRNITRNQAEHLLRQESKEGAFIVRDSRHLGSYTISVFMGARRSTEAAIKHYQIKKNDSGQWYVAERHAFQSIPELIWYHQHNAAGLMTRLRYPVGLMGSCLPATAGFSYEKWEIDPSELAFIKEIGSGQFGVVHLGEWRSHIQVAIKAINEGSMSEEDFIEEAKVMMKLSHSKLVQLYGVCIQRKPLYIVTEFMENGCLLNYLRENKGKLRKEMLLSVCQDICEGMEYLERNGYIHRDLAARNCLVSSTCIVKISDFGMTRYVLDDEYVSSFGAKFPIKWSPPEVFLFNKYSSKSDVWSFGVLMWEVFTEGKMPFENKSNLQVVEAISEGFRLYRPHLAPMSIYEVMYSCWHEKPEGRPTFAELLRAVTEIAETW
# [27] = biological target: cGMP-dependent protein kinase 1 (Homo sapiens) (UniProt Q13976); experiment: Inhibition of human PRKG1 assessed as percent of control at 2000 nM by KINOMEscan assay relative to control; parameters: scale not given: the % may be the effect or the level left
# [28] = biological target: Phosphatidylinositol 5-phosphate 4-kinase type-2 beta (Homo sapiens) (UniProt P78356); experiment: Inhibition of human PIP5K2B assessed as percent of control at 2000 nM by KINOMEscan assay relative to control; parameters: scale not given: the % may be the effect or the level left
# [29] = biological target: Death-associated protein kinase 3 (Homo sapiens) (UniProt O43293); experiment: Inhibition of human DAPK3 assessed as percent of control at 2000 nM by KINOMEscan assay relative to control; parameters: scale not given: the % may be the effect or the level left
# [30] = biological target: Cyclin-dependent kinase-like 5 (Homo sapiens) (UniProt O76039); experiment: Inhibition of human CDKL5 assessed as percent of control at 2000 nM by KINOMEscan assay relative to control; parameters: scale not given: the % may be the effect or the level left
# [31] = biological target: NUAK family SNF1-like kinase 2 (Homo sapiens) (UniProt Q9H093); experiment: Inhibition of human SNARK assessed as percent of control at 2000 nM by KINOMEscan assay relative to control; parameters: scale not given: the % may be the effect or the level left
# Sequence of NUAK family SNF1-like kinase 2 (Homo sapiens) (Q9H093 whole entry): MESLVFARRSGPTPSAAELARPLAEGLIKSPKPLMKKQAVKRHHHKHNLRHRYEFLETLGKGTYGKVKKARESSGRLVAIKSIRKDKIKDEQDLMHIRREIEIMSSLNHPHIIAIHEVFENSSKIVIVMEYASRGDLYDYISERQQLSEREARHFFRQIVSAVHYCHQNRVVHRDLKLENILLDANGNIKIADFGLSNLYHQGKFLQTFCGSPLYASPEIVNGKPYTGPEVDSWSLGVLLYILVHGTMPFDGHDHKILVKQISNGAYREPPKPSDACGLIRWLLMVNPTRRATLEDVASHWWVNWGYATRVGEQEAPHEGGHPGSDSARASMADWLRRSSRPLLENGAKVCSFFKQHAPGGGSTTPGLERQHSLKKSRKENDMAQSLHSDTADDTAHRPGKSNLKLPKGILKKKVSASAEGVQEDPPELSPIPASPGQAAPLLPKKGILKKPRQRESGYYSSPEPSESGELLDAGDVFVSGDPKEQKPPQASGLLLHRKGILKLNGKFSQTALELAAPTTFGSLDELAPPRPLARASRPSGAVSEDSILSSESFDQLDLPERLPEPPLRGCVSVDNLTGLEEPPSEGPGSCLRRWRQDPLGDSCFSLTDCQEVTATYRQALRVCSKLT
smiles,measurement,setting,value
CN(C)C(=O)c1ccc(N2CCCN(c3ccnc4sc(C(N)=O)c(N)c34)CC2)cc1,Activity,[1],83% and 80%
same,Activity,[2],95% and 80%
same,Activity,[3],100% and 87%
same,Activity,[4],98% and 96%
same,Activity,[5],100% and 99%
same,Activity,[6],100% and 93%
same,Activity,[7],91% and 100%
same,Activity,[8],91% and 81%
same,Activity,[9],100%
same,Activity,[10],100% and 93%
same,Activity,[11],96%
same,Activity,[12],99% and 96%
same,Activity,[13],83% and 100%
same,Activity,[14],100% and 78%
same,Activity,[15],73% and 71%
same,Activity,[16],100%
same,Activity,[17],97% and 88%
same,Activity,[18],86% and 100%
same,Activity,[19],100% and 87%
same,Activity,[20],100%
same,Activity,[21],99% and 100%
same,Activity,[22],100%
same,Activity,[23],80% and 95%
same,Activity,Myc-CaP,Active
same,Activity,[24],81% and 93%
same,Activity,[25],95% and 89%
same,Activity,[26],93% and 100%
same,Activity,[27],88% and 100%
same,Activity,[28],92% and 95%
same,Activity,[29],81% and 83%
same,Activity,[30],100% and 84%
same,Activity,[31],100% and 78%
